Tests used:
[1] = molecular target: T1, Full-length wild type HIV-1 integrase (SF1) (Human immunodeficiency virus type 1 group M subtype B, UniProt P04585); experiment: Integrase strand-transfer scintillation proximity assay; type: biochemical; settings: integrase strand-transfer SPA; read-out: IC50
T1 construct: made in house; host or cells: E. coli BL21 (DE3)
Summary of the method: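 Strand transfer used E. coli-expressed full-length HIV-1 integrase (aa 1–289). The donor was biotinylated, preprocessed U5 LTR viral ds-DNA bound to streptavidin SPA beads, with [3H]-thymidine-labelled host ds-DNA as target. Integration was detected by scintillation proximity.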

[2] = test system: RF strain of HIV-1 in CEM-SS cells; experiment: HIV-1 cell protection assay (XTT dye reduction); type: cell-based; settings: Human immunodeficiency virus 1, CEM-SS, 144 h
Summary of the method: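 CEM-SS cells infected at an moi giving about 90% kill (mock-infected for toxicity) and exposed to half-log compound dilutions for six days; XTT/PMS added for 4 h, formazan read at 450 nm. EC50 as protection to 50% of uninfected control, CC50 from uninfected cells, therapeutic index as CC50/EC50.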

Compound	IC50 [1]	EC50 [2]
CN(O)C(=O)c1cc2c(C(=O)NCC(F)F)cn(Cc3ccc(F)cc3)c2cn1 [Example 45, N3-(2,2-difluoroethyl)-1-(4-fluorobenzyl)-N5-hydroxy-N5-methyl-1H-pyrrolo[2,3-c]pyridine-3,5-dicarboxamide]	0.243 µM	0.039 µM
Cc1c(CNC(=O)c2cn(Cc3ccc(F)cc3)c3cnc(C(=O)N(C)O)cc23)cnn1C [Example 17, N~3~-[(1,5-dimethyl-1H-pyrazol-4-yl)methyl]-1-(4-fluorobenzyl)-N~5~- hydroxy-N~5~-methyl-1H-pyrrolo[2,3-c]pyridine-3,5-dicarboxamide]	0.168 µM	0.11 µM
